Laboratory results published in US9040523B2, “Antifungal 5,6-dihydro-4H-pyrrolo[1,2-α][1,4]-benzodiazepines and 6H-pyrrolo[1,2-α][1,4]benzodiazepines substituted with benzene derivatives” (JANSSEN PHARMACEUTICA NV, priority 2010, dated 2015).
One block for each compound: values may come before it.

Experiments:
Cytochrome P450 2C8 = biological target: T1, Cytochrome P450 2C8 (Homo sapiens, UniProt P10632); assay: Human liver microsomal cytochrome P450 cocktail inhibition assay, Protocol C; format: in vitro ADME; conditions: human liver microsomes 0.2 mg/ml; probe amodiaquine 2 microM
T1 construct: tissue BD Gentest; host or cells: human liver microsomes
T1 sequence (P10632 1-490): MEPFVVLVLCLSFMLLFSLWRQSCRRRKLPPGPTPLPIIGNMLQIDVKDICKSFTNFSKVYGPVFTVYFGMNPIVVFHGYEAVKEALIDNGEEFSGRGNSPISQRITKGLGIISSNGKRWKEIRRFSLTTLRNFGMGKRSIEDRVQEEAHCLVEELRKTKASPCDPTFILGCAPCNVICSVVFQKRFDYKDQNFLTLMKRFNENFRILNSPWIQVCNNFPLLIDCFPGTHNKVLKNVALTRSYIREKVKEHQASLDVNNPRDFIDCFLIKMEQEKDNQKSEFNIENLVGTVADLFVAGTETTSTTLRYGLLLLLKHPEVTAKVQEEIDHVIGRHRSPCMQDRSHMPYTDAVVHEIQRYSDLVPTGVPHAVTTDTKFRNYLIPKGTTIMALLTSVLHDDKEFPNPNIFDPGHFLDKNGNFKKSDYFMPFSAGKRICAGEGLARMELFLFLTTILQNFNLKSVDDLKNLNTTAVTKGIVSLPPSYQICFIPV
Description: (§1) Probe substrates and final assay concentrations with the appropriate internal standard are outlined in Table 6a.
(§2) Assays were performed in 0.1 M phosphate buffer (pH 7.4), containing 0.2 mg/ml human liver microsomes (BD Gentest) and a probe substrate mix consisting of: phenacetin, tolbutamide, S-mephenyloin, dextromethorphan, amodiaquine and midazolam (Table 6a) and a range of test compound concentrations (0 to 30 micromolar) in a total volume of 100 microliters. After a 10 min pre-incubation at 37° C., the reaction was started with addition of NADPH at a final concentration of 1.0 mM. […] The samples are centrifuged for 10 min at 4° C. at 4000 rpm and 60 microliters supernatant is diluted with 180 microliters water. Each sample is injected onto a UPLC/MS system for the simultaneous measurement of the probe substrate metabolites and their associated deuterated internal standards. Percentage inhibition is calculated according to: %-inhibition=(1−Ri/R)*100, whereby Ri and R are the metabolite to internal standard peak area ratios in the presence and absence of inhibitor respectively.
(§3) Percentage inhibition data are plotted against the Log transformed test compound concentration and after curve fitting the IC50-value is determined.

Cytochrome P450 2C19 = Cytochrome P450 2C19 (Homo sapiens, UniProt P33261); assay: as above; conditions: 2C19_S-Meph pIC50, human liver microsomes 0.2 mg/ml; probe S-mephenytoin 30 microM
Description: as §1, §2, §3

Cytochrome P450 2D6 = Cytochrome P450 2D6 (Homo sapiens, UniProt P10635); assay: as above; conditions: 2D6_Dextro pIC50, human liver microsomes 0.2 mg/ml; probe dextromethorphan 3 microM
Description: as §1, §2, §3

Cytochrome P450 2C9 = Cytochrome P450 2C9 (Homo sapiens, UniProt P11712); assay: as above; conditions: 2C9 Tolbut pIC50, human liver microsomes 0.2 mg/ml; probe tolbutamide 100 microM
Description: as §1, §2, §3

Cytochrome P450 1A2 = biological target: T2, Cytochrome P450 1A2 (Homo sapiens, UniProt P05177); assay: as above; conditions: human liver microsomes 0.2 mg/ml; probe phenacetin 80 microM
T2 sequence (P05177 1-516): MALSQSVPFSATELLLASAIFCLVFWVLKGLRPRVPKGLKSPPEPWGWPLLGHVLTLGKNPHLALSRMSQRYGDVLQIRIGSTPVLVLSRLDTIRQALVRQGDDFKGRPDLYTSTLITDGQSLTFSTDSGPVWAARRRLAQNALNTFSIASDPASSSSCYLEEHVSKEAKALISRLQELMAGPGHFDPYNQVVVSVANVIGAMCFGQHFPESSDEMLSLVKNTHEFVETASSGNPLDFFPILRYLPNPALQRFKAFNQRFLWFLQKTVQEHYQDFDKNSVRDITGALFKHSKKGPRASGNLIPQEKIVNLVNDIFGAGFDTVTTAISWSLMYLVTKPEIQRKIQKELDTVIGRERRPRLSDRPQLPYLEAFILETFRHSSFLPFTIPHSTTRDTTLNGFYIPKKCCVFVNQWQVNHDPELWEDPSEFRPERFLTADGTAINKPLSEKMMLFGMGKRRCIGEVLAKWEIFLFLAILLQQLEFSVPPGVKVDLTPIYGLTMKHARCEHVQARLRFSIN
Description: as §1, §2, §3

CYP3A4/5 = CYP3A4/5 (Homo sapiens, UniProt P08684); assay: in vitro; conditions: liver microsomes, pH 7.4, probe midazolam (2 microM)
Description: as §1
After a 10 min pre-incubation at 37° C., the reaction was started with addition of NADPH at a final concentration of 1.0 mM. […] The samples are centrifuged for 10 min at 4° C. at 4000 rpm and 60 microliters supernatant is diluted with 180 microliters water. Each sample is injected onto a UPLC/MS system for the simultaneous measurement of the probe substrate metabolites and their associated deuterated internal standards.
as §3

[1] = test system: Cryptococcus neoformans B66663; assay: Antifungal activity in vitro (resazurin susceptibility screen), Inf. F; format: cell-based; conditions: Cryptococcus neoformans, B66663, Cryptococcus neoformans B66663; 37 °C, 24 hours, resa time 4 hours; read-out: Inf. F pIC50 (converted)
How it was run: (§4)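 Serially diluted compounds were pre-spotted into 96-well U-bottom plates, then each well received 10^3 cfu of cryopreserved fungal inoculum in 200 μl RPMI-MOPS medium. Every plate carried a compound-free growth control (100%) and a medium-only control (0%), with resazurin as read-out.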

Rhizopus oryzae IHEM5223 = assay: Antifungal activity in vitro (resazurin susceptibility screen), Inf. J; format: cell-based; conditions: Rhizopus arrhizus, 37 °C, 24 hours, resa time 6 hours, read-out: Inf. J pIC50 (converted)
Description: (§5) The standard susceptibility screen was performed in 96-well plates (U-bottom, Greiner Bio-One). […] These serial dilutions (10 n1) were then spotted onto test-plates that could be stored in the dark at 4° C. for a maximum period of 2 weeks. […] The different fungal species/isolates (Table 3a) were cryopreserved and 1/1000 diluted in medium just prior to use. A standard inoculum of 200 μl containing 10^3 colony-forming unit (cfu) was then added to each well. A positive control (100% growth=fungal culture without antifungal) and a negative control (0% growth ═RPMI-MOPS medium) were included on each plate. […] [table]

[2] = Liver metabolic stability assay, gpLM; format: in vitro ADME, guinea pig; conditions: guinea pig microsomes, 1 mg protein/ml, 5 μM test compound, 15 min, 37 °C
Description: (§6) Liver preparations (microsomal fractions) were obtained from BD Gentest (San Jose, Calif., US). Metabolic stability was assessed using the following assay conditions. […] The mixture was pre-incubated at 37° C. for 5 min and the enzymatic reaction was started by addition of 5 μM test compound. After 0 (control) and 15 minutes (min), the reactions were terminated by addition of […] (500 μl). The precipitated material was removed by centrifugation at 1200 g for 10 min. The supernatant was analysed by LC-MS/MS on a ThermoFinnigan LCQ Deca XP ion-trap mass spectrometer equipped with an atmospheric pressure chemical ionisation source. Calculation of %-compound remaining was as described by Kantharaj et al. 2003 ((Kantharaj E., Tuytelaars A, Proost P E A, Ongel Z, van […] (2003). Simultaneous measurement of drug metabolic stability and identification of metabolites using ion-trap mass spectrometry.

[3] = test system: Sporothrix schenkii B62482; assay: Antifungal activity in vitro (resazurin susceptibility screen), Inf. A; format: cell-based; conditions: Sporothrix, B62482, Sporothrix schenkii B62482; 27 °C, 4 days, resa time 24 hours; highest in-test concentration 64 μM; read-out: Inf. A pIC50 (converted)
How it was run: as §4

[4] = test system: Aspergillus fumigatus B42928; assay: Antifungal activity in vitro (resazurin susceptibility screen), Inf. E; format: cell-based; conditions: Aspergillus fumigatus B42928; 27 °C, 48 hours, resa time 17 hours; read-out: Inf. E pIC50 (converted)
How it was run: as §4

[5] = Liver metabolic stability assay, mLM; format: in vitro ADME; conditions: mouse liver microsomes, 1 mg protein/ml, 5 μM test compound, 15 min, 37 °C
Description: as §6

[6] = test system: Scedosporium prolificans IHEM21157; assay: Antifungal activity in vitro (resazurin susceptibility screen), Inf. I; format: cell-based; conditions: Lomentospora prolificans, 37 °C, 48 hours, resa time 17 hours, read-out: Inf. I pIC50 (converted)
Description: as §5

[7] = test system: Scedosporium apiospermum IHEM3817; assay: Antifungal activity in vitro (resazurin susceptibility screen), Inf. H; format: cell-based; conditions: 37 °C, 48 hours, resa time 17 hours, read-out: Inf. H pIC50 (converted)
Description: as §5

[8] = Liver metabolic stability assay, hLM; format: in vitro ADME, human; conditions: human liver microsomes, 1 mg protein/ml, 5 μM test compound, 15 min, 37 °C
Microsporum canis B68128 = assay: Antifungal activity in vitro (resazurin susceptibility screen), Inf. B; format: cell-based; conditions: Microsporum canis, B68128, Microsporum canis B68128; 27 °C, 9 days, resa time 24 hours; read-out: Inf. B pIC50 (converted)
How it was run: (§7)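 Each well was inoculated with 10^3 cfu of fungus onto dried, pre-spotted compound serial dilutions in RPMI-MOPS medium, with fungal growth read by resazurin. Growth was referenced to drug-free culture (100%) and medium-only (0%) controls on each plate.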

[9] = test system: Candida parapsilosis B66126; assay: Antifungal activity in vitro (resazurin susceptibility screen), Inf. D; format: cell-based; conditions: Lodderomyces parapsilosis; Candida parapsilosis B66126; 37 °C, 24 hours, resa time 4 hours; read-out: Inf. D pIC50 (converted)
How it was run: as §7

[10] = test system: Trichophyton rubrum B68183; assay: Antifungal activity in vitro (resazurin susceptibility screen), Inf. C; format: cell-based; conditions: Trichophyton rubrum B68183; 27 °C, 7 days, resa time 24 hours; read-out: Inf. C pIC50 (converted)
How it was run: as §4

[11] = test system: Trichophyton mentagrophytes B70554; assay: Antifungal activity in vitro (resazurin susceptibility screen), Inf. G; format: cell-based; conditions: Trichophyton mentagrophytes, B70554, Trichophyton mentagrophytes B70554; 27 °C, 7 days, resa time 24 hours; read-out: Inf. G pIC50 (converted)
How it was run: as §7

[12] = test system: Rhizomucor miehei IHEM13391; assay: Antifungal activity in vitro (resazurin susceptibility screen), Inf. K; format: cell-based; conditions: 37 °C, 48 hours, resa time 17 hours, read-out: Inf. K pIC50 (converted)
Description: as §5

Cytochrome P450 2C19, sequence (P33261 whole entry): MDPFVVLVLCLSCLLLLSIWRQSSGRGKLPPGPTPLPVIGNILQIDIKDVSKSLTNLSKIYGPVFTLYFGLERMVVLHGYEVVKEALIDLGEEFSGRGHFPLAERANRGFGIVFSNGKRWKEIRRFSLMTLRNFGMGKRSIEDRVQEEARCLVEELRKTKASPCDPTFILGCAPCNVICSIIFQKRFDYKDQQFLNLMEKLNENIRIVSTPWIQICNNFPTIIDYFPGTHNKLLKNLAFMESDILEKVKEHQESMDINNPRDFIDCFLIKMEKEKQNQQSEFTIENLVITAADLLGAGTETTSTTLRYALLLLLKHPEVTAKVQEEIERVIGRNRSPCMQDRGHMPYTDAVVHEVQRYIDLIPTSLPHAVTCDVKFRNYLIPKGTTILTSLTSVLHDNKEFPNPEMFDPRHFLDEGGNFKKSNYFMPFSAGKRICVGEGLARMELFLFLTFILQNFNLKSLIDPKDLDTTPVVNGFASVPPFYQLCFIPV
Cytochrome P450 2C9, sequence (P11712 whole entry): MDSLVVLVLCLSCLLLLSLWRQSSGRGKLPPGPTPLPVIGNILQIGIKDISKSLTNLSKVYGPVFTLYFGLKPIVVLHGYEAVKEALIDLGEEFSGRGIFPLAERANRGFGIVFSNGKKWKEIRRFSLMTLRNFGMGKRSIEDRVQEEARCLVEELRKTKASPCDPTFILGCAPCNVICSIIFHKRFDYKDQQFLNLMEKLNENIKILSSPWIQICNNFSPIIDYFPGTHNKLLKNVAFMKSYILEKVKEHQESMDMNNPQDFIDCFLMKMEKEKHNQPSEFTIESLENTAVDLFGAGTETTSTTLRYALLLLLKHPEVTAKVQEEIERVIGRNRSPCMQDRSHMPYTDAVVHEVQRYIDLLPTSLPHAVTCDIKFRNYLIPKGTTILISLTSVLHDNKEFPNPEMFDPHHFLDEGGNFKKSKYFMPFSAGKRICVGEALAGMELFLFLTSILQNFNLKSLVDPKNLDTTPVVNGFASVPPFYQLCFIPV
Cytochrome P450 2D6, sequence (P10635 whole entry): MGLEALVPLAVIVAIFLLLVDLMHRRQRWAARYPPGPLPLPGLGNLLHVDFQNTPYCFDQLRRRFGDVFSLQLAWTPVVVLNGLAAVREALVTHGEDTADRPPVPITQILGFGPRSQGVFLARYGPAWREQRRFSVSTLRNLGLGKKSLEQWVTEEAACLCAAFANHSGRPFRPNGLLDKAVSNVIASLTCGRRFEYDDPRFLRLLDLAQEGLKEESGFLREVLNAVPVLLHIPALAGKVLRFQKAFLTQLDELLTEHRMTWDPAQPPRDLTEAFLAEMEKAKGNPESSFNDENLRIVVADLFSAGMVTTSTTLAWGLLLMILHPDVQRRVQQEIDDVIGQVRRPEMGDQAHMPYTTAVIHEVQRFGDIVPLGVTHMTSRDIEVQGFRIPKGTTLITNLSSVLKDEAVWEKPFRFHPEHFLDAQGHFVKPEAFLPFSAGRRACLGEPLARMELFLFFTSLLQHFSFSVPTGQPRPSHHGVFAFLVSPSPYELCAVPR
CYP3A4/5, sequence (P08684 2-503): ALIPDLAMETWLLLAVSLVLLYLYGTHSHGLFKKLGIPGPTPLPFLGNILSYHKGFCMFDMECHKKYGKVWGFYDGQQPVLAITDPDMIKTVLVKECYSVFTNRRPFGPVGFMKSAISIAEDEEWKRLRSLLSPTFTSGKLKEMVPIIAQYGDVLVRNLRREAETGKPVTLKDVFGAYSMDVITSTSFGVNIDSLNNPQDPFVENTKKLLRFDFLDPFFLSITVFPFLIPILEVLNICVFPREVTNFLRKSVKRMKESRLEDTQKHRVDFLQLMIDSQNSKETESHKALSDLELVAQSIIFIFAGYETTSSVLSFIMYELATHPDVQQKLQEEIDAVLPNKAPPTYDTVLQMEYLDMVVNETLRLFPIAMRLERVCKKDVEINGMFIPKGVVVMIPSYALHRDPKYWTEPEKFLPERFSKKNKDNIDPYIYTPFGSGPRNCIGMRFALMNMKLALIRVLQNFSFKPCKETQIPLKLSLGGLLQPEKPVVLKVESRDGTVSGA

SMILES: Br.CCc1ccc(C2NCc3c(Cl)cccc3-n3cccc32)cc1 (stereo not drawn)
- 2C8_Amod pIC50 (Cytochrome P450 2C8): <5.0
- IC50 (Cytochrome P450 2C19): 0.794 µM
- IC50 (Cytochrome P450 2D6): 2 µM
- IC50 (Cytochrome P450 2C9): 7.94 µM
- 1A2_Phen pIC50 (Cytochrome P450 1A2): <5.0
- IC50 at 10 min (CYP3A4/5): > 10 µM

- IC50 [1]: > 31.6 µM
- IC50 (Rhizopus oryzae IHEM5223): > 63.1 µM
- %-compound metabolised Met_gpLM [2]: 84%
- IC50 [3]: > 31.6 µM
- IC50 [4]: > 31.6 µM
- melting point: 252.3 to 252.6 °C
- %-compound metabolised Met_mLM [5]: 70%
- IC50 [6]: > 63.1 µM
- IC50 [7]: > 63.1 µM
- %-compound metabolised_Met_hLM [8]: 50%
- IC50 (Microsporum canis B68128): 0.2 µM
- IC50 [9]: > 31.6 µM
- IC50 [10]: 0.0398 µM
- IC50 [11]: 0.251 µM
- IC50 [12]: > 63.1 µM
SMILES: CC(=O)c1ccc(C2=NCc3c(Cl)cccc3-n3cccc32)cc1 [Compound 17, 1-[4-(7-chloro-6H-pyrrolo[1,2-a][1,4]benzodiazepin-4-yl)phenyl]-ethanone]
